Results as given in patent US12622948B2 (SUN PHARMACEUTICAL INDUSTRIES LIMITED, priority 2020, dated 2026).
Marks after values point to notes of the source that are not given here. Non-standard residues stand in square brackets, D forms with d. No end group written: not given here. Moiety A = not defined here; Nva = CCC[C@H](N)C(=O)O; Aib = CC(C)(N)C(=O)O

Test system: type 2 diabetic mouse (db/db) model
Experiment: Efficacy study in db/db mice at 10 nM/kg dose (blood glucose, body weight, food intake)
Format: in vivo
Settings: for Cumulative food Intake (g) 0-48 hr. vs. Baseline, Mean / Cumulative food Intake (g) 0-96 hr. vs. Baseline, Mean / Delta Blood Glucose (mM) Mean / Body Wt. Change (%) 48 hr. vs. Baseline, Mean / Body Wt. Change (%) 96 hr. vs. Baseline, Mean: 10 nM/kg s.c. single dose; for blood glucose reduction / body weight reduction / reduction in food consumption: db/db mice, 10 nM/kg s.c., vs diabetic control
Method: The effect of compounds of present invention on blood glucose, food intake and body weight was studied in mice. This study was performed in a type 2 diabetic mouse (db/db) model. […] Baseline blood glucose was measured from all the animals. […] All the animals were administered with test items subcutaneously. […] Delta blood glucose (mM) was calculated.

[1] = Study 3, db/db mice, 0 hr (baseline)
[2] = Study 2, db/db mice, 0 hr (baseline)

Compound | Cumulative food Intake (g) 0-48 hr. vs. Baseline, Mean (Study 3, db/db mice) | Cumulative food Intake (g) 0-96 hr. vs. Baseline, Mean (Study 3, db/db mice) | Delta Blood Glucose (mM) Mean [1] [mM] | Delta Blood Glucose (mM) Mean (Study 3, db/db mice, 4 hr) | Delta Blood Glucose (mM) Mean (Study 3, db/db mice, 8 hr) | Delta Blood Glucose (mM) Mean (Study 3, db/db mice, 12 hr) | Delta Blood Glucose (mM) Mean (Study 3, db/db mice, 24 hr) | Body Wt. Change (%) 48 hr. vs. Baseline, Mean (Study 3, db/db mice, 48 hr) | Delta Blood Glucose (mM) Mean (Study 3, db/db mice, 48 hr) | Delta Blood Glucose (mM) Mean (Study 3, db/db mice, 72 hr) | Body Wt. Change (%) 96 hr. vs. Baseline, Mean (Study 3, db/db mice, 96 hr) | Delta Blood Glucose (mM) Mean (Study 3, db/db mice, 96 hr) [mM] | Cumulative food Intake (g) 0-48 hr. vs. Baseline, Mean (Study 2, db/db mice) | Cumulative food Intake (g) 0-96 hr. vs. Baseline, Mean (Study 2, db/db mice) | Delta Blood Glucose (mM) Mean [2] [mM] | Delta Blood Glucose (mM) Mean (Study 2, db/db mice, 4 hr) | Delta Blood Glucose (mM) Mean (Study 2, db/db mice, 8 hr) | Delta Blood Glucose (mM) Mean (Study 2, db/db mice, 12 hr) | Delta Blood Glucose (mM) Mean (Study 2, db/db mice, 24 hr) | Body Wt. Change (%) 48 hr. vs. Baseline, Mean (Study 2, db/db mice, 48 hr) | other results
CCCC[C@H](NC(=O)[C@@H](NC(=O)[C@H](CO)NC(=O)[C@H](Cc1ccc(O)cc1)NC(=O)[C@H](CC(=O)O)NC(=O)[C@H](CO)NC(=O)[C@@H](NC(=O)[C@H](Cc1ccccc1)NC(=O)[C@@H](NC(=O)CNC(=O)[C@H](CCC(=O)O)NC(=O)C(C)(C)NC(=O)[C@@H](N)Cc1ccc(O)cc1)[C@@H](C)O)[C@@H](C)O)[C@@H](C)CC)C(=O)N[C@@H](CC(C)C)C(=O)N[C@@H](CC(=O)O)C(=O)N[C@@H](CCCCN)C(=O)N[C@H](C(=O)N[C@@H](C)C(=O)N[C@@H](CCC(N)=O)C(=O)N[C@@H](CCCCNC(=O)COCCOCCNC(=O)C(C)(C)NC(=O)CC[C@H](NC(=O)CCCCCCCCCCCCCCCCCCC(=O)O)C(=O)O)C(=O)N[C@@H](C)C(=O)N[C@@H](Cc1ccccc1)C(=O)N[C@H](C(=O)N[C@@H](CCC(N)=O)C(=O)N[C@@H](Cc1c[nH]c2ccccc12)C(=O)N[C@@H](CC(C)C)C(=O)N[C@H](C(=O)N[C@@H](C)C(=O)NCC(=O)NCC(=O)N1CCC[C@H]1C(=O)N[C@@H](CO)C(=O)N[C@@H](CO)C(=O)NCC(=O)N[C@@H](C)C(=O)N1CCC[C@H]1C(=O)N1CCC[C@H]1C(=O)N1CCC[C@H]1C(=O)N[C@@H](CO)C(N)=O)[C@@H](C)CC)C(C)C)[C@@H](C)CC [Compound 11] |  |  |  |  |  |  |  |  |  |  |  |  |  |  |  |  |  |  |  |  | Cumulative food Intake (g) 0-48 hr. vs. Baseline, Mean (Study 4, db/db mice): 8.2*** g; Cumulative food Intake (g) 0-96 hr. vs. Baseline, Mean (Study 4, db/db mice): 21.7* g; Delta Blood Glucose (mM) Mean (Study 4, db/db mice, 0 hr (baseline)): 0 mM; Delta Blood Glucose (mM) Mean (Study 4, db/db mice, 4 hr): −13.3*** mM; Delta Blood Glucose (mM) Mean (Study 4, db/db mice, 8 hr): −13.3*** mM; Delta Blood Glucose (mM) Mean (Study 4, db/db mice, 12 hr): −13.6*** mM; Delta Blood Glucose (mM) Mean (Study 4, db/db mice, 24 hr): −15.4*** mM; Body Wt. Change (%) 48 hr. vs. Baseline, Mean (Study 4, db/db mice, 48 hr): −4.7*** %; Delta Blood Glucose (mM) Mean (Study 4, db/db mice, 48 hr): −6.1*** mM; Delta Blood Glucose (mM) Mean (Study 4, db/db mice, 72 hr): 3.6 mM; Body Wt. Change (%) 96 hr. vs. Baseline, Mean (Study 4, db/db mice, 96 hr): −2.0*** %; Delta Blood Glucose (mM) Mean (Study 4, db/db mice, 96 hr): 6 mM
Compound 9: SEQ ID 09 polypeptide (C-terminal Arg, free acid), Lys20 acylated with Moiety A (Y[Aib]EGTFTSDYSI[Nva]LDKIAQK(Moiety A)AFVQWLIAGGPSSGAPPPSR-OH; reading uncertain) | 4.2*** g | 16.7*** g | 0 | −13.1*** mM | −12.7*** mM | −12.1*** mM | −8.7*** mM | −3.4*** % | −7.1*** mM | −5.6* mM | −3.8*** % | 0 |  |  |  |  |  |  |  |  | 
CCC[C@H](NC(=O)[C@@H](NC(=O)[C@H](CO)NC(=O)[C@H](Cc1ccc(O)cc1)NC(=O)[C@H](CC(=O)O)NC(=O)[C@H](CO)NC(=O)[C@@H](NC(=O)[C@H](Cc1ccccc1)NC(=O)[C@@H](NC(=O)CNC(=O)[C@H](CCC(=O)O)NC(=O)C(C)(C)NC(=O)[C@@H](N)Cc1ccc(O)cc1)[C@@H](C)O)[C@@H](C)O)[C@@H](C)CC)C(=O)N[C@@H](CC(C)C)C(=O)N[C@@H](CC(=O)O)C(=O)N[C@@H](CCCCN)C(=O)N[C@H](C(=O)N[C@@H](C)C(=O)N[C@@H](CCC(N)=O)C(=O)N[C@@H](CCCCNC(=O)COCCOCCNC(=O)COCCOCCNC(=O)CC[C@H](NC(=O)CCCCCCCCCCCCCCCCCCC(=O)O)C(=O)O)C(=O)N[C@@H](C)C(=O)N[C@@H](Cc1ccccc1)C(=O)N[C@H](C(=O)N[C@@H](CCC(N)=O)C(=O)N[C@@H](Cc1c[nH]c2ccccc12)C(=O)N[C@@H](CC(C)C)C(=O)N[C@H](C(=O)N[C@@H](C)C(=O)NCC(=O)NCC(=O)N1CCC[C@H]1C(=O)N[C@@H](CO)C(=O)N[C@@H](CO)C(=O)NCC(=O)N[C@@H](C)C(=O)N1CCC[C@H]1C(=O)N1CCC[C@H]1C(=O)N1CCC[C@H]1C(=O)N[C@@H](CO)C(N)=O)[C@@H](C)CC)C(C)C)[C@@H](C)CC [Compound 6] |  |  |  |  |  |  |  |  |  |  |  |  | 4.2*** g | 16.0*** g | 0 | −15.6*** mM | −15.9*** mM | −16.3*** mM | −11.8*** mM | −5.5*** % | Delta Blood Glucose (mM) Mean (Study 2, db/db mice, 48 hr): −9.5*** mM; Delta Blood Glucose (mM) Mean (Study 2, db/db mice, 72 hr): −2.6* mM; Body Wt. Change (%) 96 hr. vs. Baseline, Mean (Study 2, db/db mice, 96 hr): −2.2** %; Delta Blood Glucose (mM) Mean (Study 2, db/db mice, 96 hr): -1.6 mM; blood glucose reduction: statistically significant blood glucose reduction upto 96 hr post treatment; body weight reduction: statistically significant reduction in food intake and body weight; reduction in food consumption: statistically significant reduction in food intake
Compound 4: SEQ ID 07 polypeptide, Lys20 acylated with Moiety A (Y[Nva]EGTFTSDYSI[Nva]LDKIAQK(Moiety A)AFVQWLIAGGPSSGAPPPS-NH2; not fully specified; reading uncertain) |  |  |  |  |  |  |  |  |  |  |  |  | 4.6*** g | 14.4*** g | 0 | −10.4*** mM | −13.3*** mM | −13.8*** mM | −4.9* mM | −3.8*** % | Delta Blood Glucose (mM) Mean (Study 2, db/db mice, 48 hr): −3.7* mM; Delta Blood Glucose (mM) Mean (Study 2, db/db mice, 72 hr): 0.2 mM; Body Wt. Change (%) 96 hr. vs. Baseline, Mean (Study 2, db/db mice, 96 hr): −1.9** %; Delta Blood Glucose (mM) Mean (Study 2, db/db mice, 96 hr): -1.9 mM; blood glucose reduction: statistically significant blood glucose reduction upto 96 hr post treatment; body weight reduction: statistically significant reduction in food intake and body weight; reduction in food consumption: statistically significant reduction in food intake
Compound 8: SEQ ID 08 polypeptide, C-terminal Lys40 acylated with Moiety A (Y[Aib]EGTFTSDYSI[Nva]LEKIAAQEFVNWLLAGGPSSGAPPPSK(Moiety A)-NH2; reading uncertain) | 4.0*** g | 13.9*** g | 0 | −13.6*** mM | −13.6*** mM | −13.6*** mM | −8.5*** mM | −3.1*** % | −5.6* mM | -1.8 mM | −2.8*** % | -0.6 |  |  |  |  |  |  |  |  | 
